In patent US8008316B2, “Azonafide derived tumor and cancer targeting compounds” (The United States of America as represented by the …, priority 2006, dated 2011):

Test system: Gastrin receptor-expressing rat pancreatic cells (NIH line AR42J)
Assay: Viable cell count of AR42J cells after about five days of exposure
Format: cell-based
Settings: for % Viable Cells: rat
Procedure: The number of viable cells left in the culture after the five day period was measured, and compared to a control culture that was not exposed either compound. The number of cells remaining in each of the experimental cultures, expressed as a percentage of viable cells in the control culture, is provided in Table 4, below.

## COc1ccc2c3c(c4ccccc4cc13)C(=O)N(CCN(C)CCN)C2=O [MD117, 2-{2-[(2-aminoethyl)methylamino]ethyl}-6-methoxy-1,2-dihydro-3H-dibenzo[de,h]isoquinoline-1,3-dione]
AR42J, 10, 50, 100 and 1000 nM, result in words
  cell killing at the tested concentrations: killing all cells in the culture at each of the tested concentrations
Rattus norvegicus, AR-42J, 120 h, read-out: LC50 (median concentration required for death of 50% of the cell population), AR42J, about five days, calculated from the data
  CC50: 3 nM
0.01 µM
  % Viable Cells: −100%
0.05 µM
  % Viable Cells: −100%
0.1 µM
  % Viable Cells: −100%
1 µM
  % Viable Cells: −100%
